According to PubChem BioAssay AID179 (DTP/NCI, 2004):
pEC50, pIC50: −log10 of the molar value. Where “and” joins values, the source holds several entries; their conditions need not be identical. Equal entries are not always repeated. Calls of active or inactive are those of the source.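 Rule for the calls: active = compounds giving half or more protection of infected cells from virus-caused growth loss, again on retest; inactive = the rest.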

Test system: CEM cells HIV-1 protection, formazan growth assay
Experiment: NCI AIDS Antiviral Assay
Conditions: for pIC50: measured here: growth of uninfected CEM cells
Outline: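 Protection of CEM cells against HIV-1 was scored from cell growth (soluble formazan) across five concentrations, with parallel uninfected cells. Lack of protection may reflect toxicity.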

SMILES	outcome	pEC50	pIC50
CC(=O)[C@]1(O)Cc2c(O)c3c(c(O)c2[C@@H](OC2CC(N)C(O)C(C)O2)C1)C(=O)c1c(OCc2ccccc2)cccc1C3=O (stereo partly drawn)	inactive	–	–
Cc1nn(C(=O)Cc2ccccc2)c2c1C(c1ccccc1)SC(N)=N2 (stereo not drawn)	–	3.83	3.71
CCNCCN.[O-][Cl+3]([O-])([O-])[O-].[Pd+2].c1ccc(-c2ccccn2)nc1	–	< 3.70	4.51
COc1ccc(-c2ccccc2)c(N/N=C2\CCCNC2=O)c1	inactive	–	–
C[N+]1(C)CC=C(N2CCOCC2)CC1	–	< 3.70	< 3.70
COc1cc2c(cc1OC)CC(=O)c1cc(OC)c(OC)cc1/C=C\2	–	< 4.90	5.12
CC(C)(C)c1ccc(SS(=O)(=O)c2ccc(C(C)(C)C)cc2)cc1	–	4.70	4.64
N#CC1C2C=CC(CCC2)C1C#N (stereo not drawn)	–	< 3.70	< 3.70
CCCCC(=O)[O-].N.N.N.N.N.[Co+3].[O-][Cl+3]([O-])([O-])[O-]	inactive	–	–
NC(CCCNCc1ccccc1)C(=O)O (stereo not drawn)	–	< 3.25	< 3.25
CC(C)N1CCC2(CC1)NNc1ncccc1-n1cccc12	–	< 3.17	3.45
COC(C)(C)C1(O)CC[C@@H](C)CC1=O (stereo partly drawn)	–	< 4.00	< 4.00
O=C(NO)c1ccc(OCc2ccccc2)cc1	–	< 3.70	4.79
COC(=O)CCc1cccnc1/C=N/O	–	< 2.92	3.90
N#C[C@H](C(=O)c1ccccc1F)c1nc2ccccc2s1	–	< 3.70	4.03
O=C(Cn1c2c(c3ccccc31)CCCC2)N1CCCCC1	–	< 3.70	< 3.70
COc1cc([C@@H]2CC3(C)OC(=O)C2CC3C)cc(OC)c1OC (stereo partly drawn)	–	< 3.25	< 3.25
COC(=O)C1CCC(=O)N1C(c1ccccc1)c1cc(OC)c(OC)c(OC)c1 (stereo not drawn)	–	< 3.70	4.46
C[C@]12CC[C@H](CC=C(c3cc(Cl)c(O)c(C(=O)O)c3)c3cc(Cl)c(O)c(C(=O)O)c3)C[C@@H]1CC[C@@H]1[C@@H]2CC[C@]2(C)[C@@H](CC=C(c3cc(Cl)c(O)c(C(=O)O)c3)c3cc(Cl)c(O)c(C(=O)O)c3)CC[C@@H]12	–	4.54	4.34
COc1nc2[nH]c(C)cc(=O)c2c2ccccc12	–	< 3.70	< 3.70
CCCCCCCCCCCCCCCC(=O)NC(Cc1ccc(O)cc1)C(=O)O (stereo not drawn)	–	< 4.00	4.30
CCOc1ncn(-c2ccc(NC(=S)Nc3cnccn3)cc2)n1	–	3.89	< 3.70
CCCOc1ccc(/C(Cl)=C(\C=O)c2ccc(OC)c(OC)c2)cc1OCCC	–	< 5.32	< 5.32

SMILES	outcome	pEC50	pIC50
CCC1(O)C(=O)Nc2ccccc2C1=O (stereo not drawn)	–	< 3.70	< 3.70
CC(=O)C1=CC=C/C1=N\Nc1ccccc1	–	< 3.70	4.96
CC1(C)COC(CCCCCNC2=NCCCCC2)=N1	–	< 3.70	< 3.70
Cn1c2c(c3ccccc31)CCN(CCCCN1CCN(c3cccc(Cl)c3)CC1)C2=O	–	< 4.96	< 4.96
Cn1c(-c2cccs2)cc(-c2cccs2)c1-c1cccs1	–	< 3.70	4.47
Cc1ccc(S(=O)C[C@](NC(=O)OCc2ccccc2)(Sc2ccccc2)C(F)F)cc1 (stereo partly drawn)	–	< 3.70	4.97
Nc1nc(=S)[nH]c(N)c1N=O	–	4.07	3.92
CC12CC(C#N)(C#N)C(C#N)(CO1)C(=N)O2 (stereo not drawn)	–	< 3.70	4.37
COC(=O)c1ccccc1C1CN=NC12Cc1cc(C)c(C)cc1C2=O (stereo not drawn)	–	< 3.86	< 3.86
Cc1ccc(C2=Nn3c(nc4sc(C)c(C)c4c3=O)SC2)cc1	–	< 3.70	< 3.70
C/C=C(/C)C(=O)O[C@@H]1CCN2CC[C@H](COC(=O)/C(=C/C)CO)C12 (stereo partly drawn)	–	< 3.70	3.97
O=[N+]([O-])c1cc(Cl)ccc1S(=O)(=O)c1cc(Cl)cc2c1NCCC2	–	< 3.70	4.49
O=[N+]([O-])C(C(Cl)=C(Cl)Cl)=C(n1nnc2ccccc21)n1nnc2ccccc21	–	< 3.70	4.57
O=Cc1ccc2c(c1)CC1(C2)Cc2ccc3c(c2C1)CCC3 (stereo not drawn)	–	< 3.70	5.13
COc1cccc(-c2[nH]c3cc4c(cc3c(=O)c2C(=O)O)OCO4)c1	–	< 3.70	4.86
Nc1c(Br)cc(-c2cc(Br)c(N)c(Br)c2)cc1Br	–	< 3.70	3.86
O=C1C=Cc2c(Cl)sc(Cl)c21	–	< 3.70	6.10
O=C(CCCN1CCC2(CC1)CC(=O)N(N1CCOCC1)C2=O)c1ccccc1	–	< 3.70	< 3.70
CCNCC(O)c1ccc(N)c([N+](=O)[O-])c1 (stereo not drawn)	–	< 3.70	< 3.70
NC(=O)C(=O)c1ncn(Cc2ccccc2)c1N	–	< 3.70	< 3.70
O=C(O)c1cc(/C=C/c2ccc(N=Nc3c(O)cc(O)cc3C(=O)O)c(C(=O)O)c2)ccc1N=Nc1c(O)cc(O)cc1C(=O)O	–	4.78 and 5.41	< 4.00 and 4.02
COc1cc(C[S+]2CCCC2)c(SC)cc1C[S+]1CCCC1	–	< 4.08	< 4.08
O=c1n(Cc2ccccc2)c(=O)n2c(=O)n(Cc3ccccc3)c(=O)n12	–	< 3.70	3.83

SMILES	outcome	pEC50	pIC50
[NH-]/N=C(\[O-])c1ccncc1.[NH-]/N=C(\[O-])c1ccncc1.[Ni+2]	–	< 4.00	< 4.00
CCOC(=O)c1c[nH]c(C(=O)OCC)c1-c1cccn1-c1ccccc1	–	< 3.70	4.61
CCCCCCCCCCSC(=O)NC	inactive	–	–
Cc1cc(C)nc(NS(=O)(=O)c2ccc(Nc3c4ccccc4nc4c(C(=O)N5CCN(CCOS(C)(=O)=O)CC5)cccc34)cc2)n1	–	< 4.37	< 4.37
CN(C)CCNC(=O)c1nc([N+](=O)[O-])cn1C	–	< 3.70	< 3.70
CN(C)c1ccc(/C=C2\Oc3ccccc3C2=O)cc1	–	< 3.70	< 3.70
OC(c1ccccn1)c1c(Cl)cccc1Cl (stereo not drawn)	–	< 3.70	< 3.70
O=C(c1cc(Cl)ccc1Cl)N1CCN(c2ccc(Cl)c(Cl)c2)CC1	–	< 3.70	4.60
CC(=O)O[C@]12CCCCCC1C1(O)C(O)CCCCC12 (stereo partly drawn)	–	< 3.70	< 3.70
CCN(CC)C(=O)C1=C(C)NC(C)=C(C(=O)N(CC)CC)C1	–	< 3.70	4.21
CC(C)(C)c1ccccc1NS(=O)(=O)c1ccccc1	inactive	–	–
Cc1cc(C)c2c(=N)c3ccccc3n(CCCCCCn3c4ccccc4c(=N)c4c(C)cc(C)nc43)c2n1	–	< 5.70	6.52
O=C(O)C(=Cc1ccc([N+](=O)[O-])cc1)C(=O)O	–	< 2.98	3.26
O=C1Cc2ccccc2N1/N=C\c1ccc([N+](=O)[O-])cc1	–	< 4.17	< 4.17
O=C(CCC(=O)Nc1cccc(Cl)c1)CC(=O)c1ccc(F)cc1	inactive	–	–
O=C(/C=C/c1ccc(OCc2ccccc2)c(OCc2ccccc2)c1)OCc1ccccc1	–	< 3.70	< 3.70
CCOC(=O)c1c(SC(=O)C(C)(C)Oc2ccc(Cl)cc2)n(-c2ccccc2)c(=S)n(-c2ccccc2)c1=O	–	< 3.70	5.02
CCC[CH2][Sn]1([CH2]CCC)[O]C(=O)c2ccc(C)cc2[O]1	inactive	–	–
Cc1ccc2c(c1)-c1nc(N)c(C#N)c(-c3ccc(Cl)cc3)c1CCS2(=O)=O	–	< 3.70	4.53
COC(=O)C(=O)C(C(C)=O)C(=O)C(=O)Nc1ccc(C)cc1C (stereo not drawn)	–	< 3.95	< 3.95
C(=N\Nc1ccc2ccccc2n1)/c1ccccn1.CC(=O)[O-].CC(=O)[O-].[Zn+2]	–	< 3.70	5.98
Cc1cc(S(=O)(=O)Nc2nnc3c4c(C)csc4ncn23)c(S)cc1Cl	–	< 3.70	3.96
CCN=C(NC(=O)c1ccccc1Cl)SCSC(=NCC)NC(=O)c1ccccc1Cl	–	< 3.70	< 3.70

SMILES	outcome	pEC50	pIC50
Cc1ncc2c(=O)c3c(oc2n1)c1ccccc1n3Cc1ccccc1	–	< 3.70	< 3.70
O=C1c2ccccc2C2(c3ccc(F)cc3)NCCN12 (stereo not drawn)	–	< 3.70	3.73
COc1ccccc1C1OCC(C)(C)N1C (stereo not drawn)	–	< 3.70	4.84
COC(=O)CC1(C(=O)OC)C2CCCN2C2(C#N)c3ccccc3CCC12Br (stereo not drawn)	–	< 4.38	< 4.38
CC1=C(C(=O)Nc2cc(=O)n(C)c(=O)n2C)C(c2cccc([N+](=O)[O-])c2)C(C(=O)Nc2cc(=O)n(C)c(=O)n2C)=C(C)N1	–	< 4.50	< 4.50
CC(=C\c1ccccc1)/C=C1/NC(=O)NC1=O	–	< 3.70	3.89
CC(C)(C)SSC(=S)C(c1ccccc1)c1ccccc1	–	< 3.70	3.74
NCCCOc1ccc(-c2c3nc(cc4ccc([nH]4)c(-c4ccc(OCCCN)cc4)c4nc(cc5ccc2[nH]5)C=C4)C=C3)cc1	–	5.62	5.48
CCCCN(CCCC)C(=O)C(=O)CC(=O)c1ccc(Br)cc1	inactive	–	–
COc1cc2c(c3oc(C)c(C)c(=O)c13)C=CC(C)(C)O2	–	< 3.70	4.18
COc1ccc2[nH]c3c(C)c4ccnc(NCCCN(C)CCCN)c4c(C)c3c2c1	–	< 6.00	6.42
Cc1c(CN2CCN(C)CC2)c(CN2CCN(C)CC2)c(C)n1-c1ccc(Cl)cc1	–	< 3.82	4.58
Cn1ccc2c3c(ccc21)C(N1CCOCC1)=CS(=O)(=O)O3	inactive	–	–
CNC(=O)C(C)NC(=O)C(Cc1ccccc1)NC(=O)OC(C)(C)C (stereo not drawn)	–	< 3.70	< 3.70
CCN=C(N)Nc1ccccc1	–	< 3.70	3.88
CCOC(=O)/C(I)=C/c1cc(OC)c(OC)c(OC)c1	–	< 3.85	4.07
CC(=O)OC1C[C@@H](C)C2(CC(c3ccoc3)OC2=O)C2CCC(O)C3(CO3)C12CO (stereo partly drawn)	–	< 3.70	< 3.70
CCc1cccc(C(C)C)c1NC(=O)C(=O)CC(=O)c1c(C)n([O-])c2ccccc2[n+]1=O	–	< 5.48	< 5.48
N#CNC(N)=NCCO	–	< 3.16	< 3.16
CCOC(=O)NC(=O)c1cn(CCN2CCNCC2)c(=O)[nH]c1=O	inactive	–	–
